One experiment deals with EGFR-Del19/T790M/C797S. The experiment is described as follows: EGFR degradation HTRF assay in H1975-clone #28 cells. It counts as cell-based. The following applies: H1975-clone #28 (Del19/T790M/C797S) cells, 16 h treatment; for DC50: IC50 (DC50), read-out: DC50(nM) H1975 # 28 DTC; for Dmax (%) H1975 # 28 DTC: maximum percentage of inhibition (degradation). On the procedure: (§1) H1975-clone #28(Del19/T790M/C797S) and H1975-clone #25(L858R/T790M/C797S). EGFR-Del19/T790M/C797S and EGFR-L858R/T790M/C797S were stably expressed in H1975 cell lines by lentivirus-mediated over-expression, respectively. The EGFR over-expressed cells then underwent knockout, in which the EGFR targeting sgRNA was designed to only target the endogenous EGFR copies and preserve the exogenous EGFR copies. Followed by knockout, the edited H1975 cells were seeded in 96 well plates at the concentration of […], cultured for about 2 weeks to allow single clones formation. The formed clones were screened by DNA sequencing and whole exon sequencing analysis for the desired edition.
(§2) H1975-clone #28, and H1975-clone #25 were finally confirmed as homozygous Del19/T790M/C797S EGFR, and L858R/T790M/C797S EGFR clones, respectively.
(§3) H1975-#25 and H1975-#28 cells are treated with compounds diluted in 0.2% DMSO cell culture medium on day 2, incubate for 16 h, 37° C., 5% CO2. the final concentration of compounds in all assay is start with 10 uM, 5-fold dilution, total 8 doses were included.
(§4) After 16 h treatment, add HTRF lysis buffer to each well; seal the plate and incubate 1 hour at room temperature on a plate shaker; Once the cells are lysed, 16 μL of cell lysate are transferred to a PE 384-well HTRF detection plate; 4 μL of pre-mixed HTRF antibodies are added to each well; Cover the plate with a plate sealer, spin 1000 rpm for 1 min, Incubate overnight at room temperature; Read on BMG PheraStar with HTRF protocol (337 nm-665 nm-620 nm).
(§5) The inhibition (degradation) percentage of the compound was calculated by the following equation:
(§6) Inhibition percentage of Compound=100−100×(Signal−low control)/(High control−low control),
(§7) The IC50 (DC50) value of a compound can be obtained by fitting the following equation
(§8) Wherein, X and Y are known values, and IC50, Hillslope, Top and Bottom are the parameters obtained by fitting with software. Y is the inhibition percentage (calculated from the equation), X is the concentration of the compound; IC50 is the concentration of the compound when the 50% inhibition is reached. The smaller the IC50 value is, the stronger the inhibitory ability of the compound is. Vice versa, the higher the IC50 value is, the weaker the ability the inhibitory ability of the compound is; Hillslope represents the slope of the fitted curve, generally around 1 *; Bottom represents the minimum value of the curve obtained by data fitting, which is generally 0%±20%; Top represents the maximum value of the curve obtained by data fitting, which is generally 100%±20%. The experimental data were fitted by calculating and analyzing with Dotmatics data analysis software.

Another experiment deals with T1, EGFR-L858R/T790M/C797S (Homo sapiens, UniProt P00533, C797S/L858R/T790M).
T1 construct: expressed in transfected cells; host or cells: H1975-clone #25 (lentiviral over-expression, endogenous EGFR knocked out)
T1 sequence (P00533 25-1210 T790M/C797S/L858R): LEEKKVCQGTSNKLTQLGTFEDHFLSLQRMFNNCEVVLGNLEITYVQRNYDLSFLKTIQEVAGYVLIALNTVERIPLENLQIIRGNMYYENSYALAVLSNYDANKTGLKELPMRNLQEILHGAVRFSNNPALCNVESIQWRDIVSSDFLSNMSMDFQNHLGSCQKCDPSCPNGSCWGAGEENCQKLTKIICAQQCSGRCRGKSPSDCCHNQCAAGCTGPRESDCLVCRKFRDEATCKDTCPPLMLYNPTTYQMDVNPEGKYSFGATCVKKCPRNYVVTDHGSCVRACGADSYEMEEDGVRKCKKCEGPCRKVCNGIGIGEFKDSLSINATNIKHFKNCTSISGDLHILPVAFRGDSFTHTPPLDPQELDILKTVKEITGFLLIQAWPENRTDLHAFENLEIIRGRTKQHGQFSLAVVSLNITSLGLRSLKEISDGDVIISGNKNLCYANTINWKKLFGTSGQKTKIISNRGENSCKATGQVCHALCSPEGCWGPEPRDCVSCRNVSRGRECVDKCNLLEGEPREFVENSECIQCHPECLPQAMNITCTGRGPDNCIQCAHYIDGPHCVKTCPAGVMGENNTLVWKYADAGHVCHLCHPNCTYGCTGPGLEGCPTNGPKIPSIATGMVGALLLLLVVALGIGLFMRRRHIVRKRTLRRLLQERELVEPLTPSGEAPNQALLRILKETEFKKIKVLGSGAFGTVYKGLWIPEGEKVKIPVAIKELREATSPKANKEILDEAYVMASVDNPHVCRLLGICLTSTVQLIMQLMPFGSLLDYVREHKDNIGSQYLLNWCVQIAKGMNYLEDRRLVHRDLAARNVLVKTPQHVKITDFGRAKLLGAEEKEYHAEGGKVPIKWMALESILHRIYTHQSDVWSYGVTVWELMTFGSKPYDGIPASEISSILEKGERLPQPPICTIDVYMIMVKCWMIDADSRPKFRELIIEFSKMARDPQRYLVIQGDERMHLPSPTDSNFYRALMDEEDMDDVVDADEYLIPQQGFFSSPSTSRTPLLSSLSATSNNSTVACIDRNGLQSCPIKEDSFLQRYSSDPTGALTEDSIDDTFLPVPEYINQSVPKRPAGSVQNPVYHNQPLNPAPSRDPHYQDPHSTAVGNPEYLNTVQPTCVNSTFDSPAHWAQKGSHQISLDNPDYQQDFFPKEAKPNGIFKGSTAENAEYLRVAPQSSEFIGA
In words: EGFR degradation HTRF assay in H1975-clone #25 cells. It counts as cell-based. The following applies: 16 h treatment; for DC50: H1975-clone #25 (L858R/T790M/C797S) cells, IC50 (DC50), read-out: DC50(nM) H1975 # 25-LTC; for Dmax: NCI-H1975, H1975-clone #25 (L858R/T790M/C797S) cells, maximum percentage of inhibition (degradation), read-out: Dmax (%) H1975 # 25-LTC. On the procedure:
as §1, §2, §3, §4, §5, §6, §7, §8

For the compound `CCc1ncc2c(P(C)(C)=O)c(Nc3nc(Nc4cc(CC)c(N5CCC(N6CCN(C7CN(c8cccc9c8n(C)c(=O)n9C8CCC(=O)NC8=O)C7)CC6)CC5)cc4OC)ncc3Br)ccc2n1` (stereo not shown) [Example 23, 3-(4-(3-(4-(1-(4-((5-bromo-4-((5-(dimethylphosphoryl)-2-ethylquinazolin-6-yl)amino)pyrimidin-2-yl)amino)-2-ethyl-5-methoxyphenyl)piperidin-4-yl)piperazin-1-yl)azetidin-1-yl)-3-methyl-2-oxo-2,3-dihydro-1H-benzo[d]imidazol-1-yl)piperidine-2,6-dione], in the experiment on EGFR-Del19/T790M/C797S, the DC50 was 0.6 nM and the “Dmax (%) H1975 # 28 DTC” value turned out to be 74%. Also, on EGFR-L858R/T790M/C797S, the DC50 was 0.9 nM and the Dmax is 80%.

Turning to `CCc1cc(Nc2ncc(Br)c(Nc3ccc4nc(C)c(F)cc4c3P(C)(C)=O)n2)c(OC)cc1N1CCC(N2CCN(C(=O)C3CN(c4ccc(F)c5c4n(C)c(=O)n5[C@H]4CCC(=O)NC4=O)C3)CC2)CC1` [Example 24, (S)-3-(4-(3-(4-(1-(4-((5-bromo-4-((5-(dimethylphosphoryl)-3-fluoro-2-methylquinolin-6-yl)amino)pyrimidin-2-yl)amino)-2-ethyl-5-methoxyphenyl)piperidin-4-yl)piperazine-1-carbonyl)azetidin-1-yl)-7-fluoro-3-methyl-2-oxo-2,3-dihydro-1H-benzo[d]imidazol-1-yl)piperidine-2,6-dione], in the experiment with EGFR-Del19/T790M/C797S, the DC50 turned out to be 0.6 nM and the “Dmax (%) H1975 # 28 DTC” value is recorded as 87%. On EGFR-L858R/T790M/C797S, the DC50 turned out to be 1.4 nM and the Dmax was 88%.

`CCc1ncc2c(P(C)(C)=O)c(Nc3nc(Nc4cc(CC)c(N5CCC(N6CC7(CN(c8cccc9c8n(C)c(=O)n9C8CCC(=O)NC8=O)C7)C6)CC5)cc4OC)ncc3Br)ccc2n1` (stereo not shown) [Example 25, 3-(4-(6-(1-(4-((5-bromo-4-((5-(dimethylphosphoryl)-2-ethylquinazolin-6-yl)amino)pyrimidin-2-yl)amino)-2-ethyl-5-methoxyphenyl)piperidin-4-yl)-2,6-diazaspiro[3.3]heptan-2-yl)-3-methyl-2-oxo-2,3-dihydro-1H-benzo[d]imidazol-1-yl)piperidine-2,6-dione]: in the experiment on EGFR-Del19/T790M/C797S, the DC50 worked out at 0.8 nM and the “Dmax (%) H1975 # 28 DTC” value worked out at 74%. Also, on EGFR-L858R/T790M/C797S, the DC50 turned out to be 0.5 nM and the Dmax amounted to 82%.

On to `CCc1cc(Nc2ncc(Br)c(Nc3ccc4nc(C)c(F)cc4c3P(C)(C)=O)n2)c(OC)cc1N1CCC(N2CC3(CN(c4cccc5c4n(C)c(=O)n5C4CCC(=O)NC4=O)C3)C2)CC1` (stereo not shown) [Example 26, 3-(4-(6-(1-(4-((5-bromo-4-((5-(dimethylphosphoryl)-3-fluoro-2-methylquinolin-6-yl)amino)pyrimidin-2-yl)amino)-2-ethyl-5-methoxyphenyl)piperidin-4-yl)-2,6-diazaspiro[3.3]heptan-2-yl)-3-methyl-2-oxo-2,3-dihydro-1H-benzo[d]imidazol-1-yl)piperidine-2,6-dione], for which, in the experiment with EGFR-Del19/T790M/C797S, the DC50 is 1.4 nM and the “Dmax (%) H1975 # 28 DTC” value turned out to be 75%. At EGFR-L858R/T790M/C797S, the DC50 came to 0.7 nM and the Dmax came to 80%.

`CCc1cc(Nc2ncc(Br)c(Nc3ccc4nc(C)c(F)cc4c3P(C)(C)=O)n2)c(OC)cc1N1CCC2(CCN(CCCc3cccc4c3n(C)c(=O)n4C3CCC(=O)NC3=O)CC2)CC1` (stereo not shown) [Example 28, 3-(4-(3-(9-(4-((5-bromo-4-((5-(dimethylphosphoryl)-3-fluoro-2-methylquinolin-6-yl)amino)pyrimidin-2-yl)amino)-2-ethyl-5-methoxyphenyl)-3,9-diazaspiro[5.5]undecan-3-yl)propyl)-3-methyl-2-oxo-2,3-dihydro-1H-benzo[d]imidazol-1-yl)piperidine-2,6-dione]: in the experiment with EGFR-Del19/T790M/C797S, the DC50 came to 1 nM and the “Dmax (%) H1975 # 28 DTC” value was 80%. Moreover, on EGFR-L858R/T790M/C797S, the DC50 was determined as 2.2 nM and the Dmax is 87%.

For `CCc1ncc2c(P(C)(C)=O)c(Nc3nc(Nc4cc(CC)c(N5CCC(N6CC7(CCN(c8cccc9c8n(C)c(=O)n9C8CCC(=O)NC8=O)CC7)C6)CC5)cc4OC)ncc3Br)ccc2n1` (stereo not shown) [Example 31, 3-(4-(2-(1-(4-((5-bromo-4-((5-(dimethylphosphoryl)-2-ethylquinazolin-6-yl)amino)pyrimidin-2-yl)amino)-2-ethyl-5-methoxyphenyl)piperidin-4-yl)-2,7-diazaspiro[3.5]nonan-7-yl)-3-methyl-2-oxo-2,3-dihydro-1H-benzol[d]imidazol-1-yl)piperidine-2,6-dione], in the experiment on EGFR-Del19/T790M/C797S, the 50% degradation concentration (DC50) turned out to be 0.8 nM and the “Dmax (%) H1975 # 28 DTC” value is recorded as 80%. Moreover, at EGFR-L858R/T790M/C797S, the DC50 was determined as 0.6 nM and the Dmax is 86%.

On to `CCOc1cc(N2CCC(N3CC4(CCN(c5cccc6c5n(C)c(=O)n6C5CCC(=O)NC5=O)CC4)C3)CC2)c(CC)cc1Nc1ncc(Cl)c(Nc2ccc3nc(C)c(F)cc3c2P(C)(C)=O)n1` (stereo not shown) [Example 32, 3-(4-(2-(1-(4-((5-chloro-4-((5-(dimethylphosphoryl)-3-fluoro-2-methylquinolin-6-yl)amino)pyrimidin-2-yl)amino)-5-ethoxy-2-ethylphenyl)piperidin-4-yl)-2,7-diazaspiro[3.5]nonan-7-yl)-3-methyl-2-oxo-2,3-dihydro-1H-benzol[d]imidazol-1-yl)piperidine-2,6-dione], for which, in the experiment with EGFR-Del19/T790M/C797S, the DC50 worked out at 1.4 nM and the “Dmax (%) H1975 # 28 DTC” value is reported as 77%. Further, on EGFR-L858R/T790M/C797S, the DC50 is 1.3 nM and the Dmax came out at 81%.

In the case of `CCc1cc(Nc2ncc(Br)c(Nc3ccc4nc(C)c(F)cc4c3P(C)(C)=O)n2)c(OC)cc1N1CCC2(CCN(CC3CN(c4cccc5c4CN(C4CCC(=O)NC4=O)C5=O)C3)CC2)CC1` (stereo not shown) [Example 33, 3-(4-(3-((9-(4-((5-bromo-4-((5-(dimethylphosphoryl)-3-fluoro-2-methylquinolin-6-yl)amino)pyrimidin-2-yl)amino)-2-ethyl-5-methoxyphenyl)-3,9-diazaspiro[5.5]undecan-3-yl)methyl)azetidin-1-yl)-1-oxoisoindolin-2-yl)piperidine-2,6-dione], in the experiment with EGFR-Del19/T790M/C797S, the DC50 came to 2.1 nM and the “Dmax (%) H1975 # 28 DTC” value was determined as 82%. Further, at EGFR-L858R/T790M/C797S, the DC50 was found to be 1.5 nM and the Dmax amounted to 91%.

For the compound `CCc1cc(Nc2ncc(Br)c(Nc3ccc4nc(C)c(F)cc4c3P(C)(C)=O)n2)c(OC)cc1N1CCC2(CCN(CCN(C)c3cccc4c3CN(C3CCC(=O)NC3=O)C4=O)CC2)CC1` (stereo not shown) [Example 34, 3-(4-((2-(9-(4-((5-bromo-4-((5-(dimethylphosphoryl)-3-fluoro-2-methylquinolin-6-yl)amino)pyrimidin-2-yl)amino)-2-ethyl-5-methoxyphenyl)-3,9-diazaspiro[5.5]undecan-3-yl)ethyl)(methyl)amino)-1-oxoisoindolin-2-yl)piperidine-2,6-dione], in the experiment on EGFR-Del19/T790M/C797S, the DC50 came to 2.5 nM and the “Dmax (%) H1975 # 28 DTC” value is listed as 80%. Besides, on EGFR-L858R/T790M/C797S, the DC50 came out at 2.8 nM and the Dmax came out at 89%.

With `CCc1ncc2c(P(C)(C)=O)c(Nc3nc(Nc4cc(CC)c(N5CCC(N6CCN(CC7CCN(c8ccc9c(c8)CN(C8CCC(=O)NC8=O)C9=O)CC7)CC6)CC5)cc4OC)ncc3Br)ccc2n1` (stereo not shown) [Example 35, 3-(5-(4-((4-(1-(4-((5-bromo-4-((5-(dimethylphosphoryl)-2-ethylquinazolin-6-yl)amino)pyrimidin-2-yl)amino)-2-ethyl-5-methoxyphenyl)piperidin-4-yl)piperazin-1-yl)methyl)piperidin-1-yl)-1-oxoisoindolin-2-yl)piperidine-2,6-dione], in the experiment on EGFR-Del19/T790M/C797S, the DC50 was 1.2 nM and the “Dmax (%) H1975 # 28 DTC” value was found to be 79%. For the same compound, at EGFR-L858R/T790M/C797S, the DC50 is 1.3 nM and the Dmax turned out to be 83%.

As usually defined, the DC50 is the midpoint of the concentration-degradation curve. As usually defined, the Dmax is the largest share of the target that was removed.
